# “And” between values parts separate entries of the source, which are not always exact repeats. Equal entries are not always repeated. Marks after values point to notes of the source that are not given here.
# Key:
# [1] = tested on: nursing piglets; assay: Litter performance: number of nursing piglets and piglet mortality in litters of lactating sows fed sorbitol; format: in vivo, swine
# Experimental: (§1) In this example, sixty-two (62) lactating sows were subjected to one of three different feeding trials that each began shortly (within 48 hours) after the lactating sows gave birth to piglets (i.e.: shortly after farrowing) and extended to the day the different piglets were wearied from the respective sows. The purpose of this example was to evaluate the effect of feeding lactating sows varying amounts of sugar alcohol, or no sugar alcohol, on subsequent piglet litter performance parameters, such as mortality prior to weaning and litter weight gain during the pre-weaning period. Sorbitol was used as the sugar alcohol in this example.
# Immediately after farrowing, twenty sows were randomly assigned to the Control, twenty-one sows were randomly assigned to Trial A, and twenty-one sows were randomly assigned to Trial B. Sow assignment did take into account parity (number of litters per sow) to artificially balance parity across the Control, Trial A, and Trial B. The different sows of the Control, Trial A, and Trial B had parities ranging from one to more than two. Additionally, litter size was equalized between the different sows of the Control, Trial A, and Trial B within forty-eight hours after farrowing to assure that all sows, whether assigned to the Control, Trial A or Trial B, had the same, or about the same, number of nursing piglets. The reason for waiting forty-eight hours before cross-fostering in this fashion was to assure each piglet received colostrum from their original dam.
# (§2) In Trial A, each of the lactating sows received the control feed plus about twenty-six grams of sorbitol per day. In Trial B, each of the lactating sows received the control feed plus about fifty-two grams of sorbitol per day.
# The lactating sows of both Trial A and Trial B received the same daily amount of control feed that was fed to the lactating sows of the Control with the exception that two pounds of the control feed provided daily to the lactating sows of both Trial A and Trial B were replaced with two pounds of a sorbitol-coated control feed (hereinafter referred to as “top-dressed control feed”). To create the top-dressed control feed, liquid sorbitol was heated to a temperature ranging from about 100° F. and about 120° F. The heated liquid sorbitol was then sprayed over a batch of about three hundred to four hundred pounds of the control feed and thoroughly mixed to form the top-dressed control feed. Following mixing, the top-dressed control feed was divided and separately bagged in two pound increments. An appropriate ratio of the liquid sorbitol to the control feed was selected for the top-dressed control feed destined for the Trial A lactating sows to assure that each two pound allotment of the control feed destined for the Trial A lactating sows included about twenty-six grams of sorbitol. Likewise, an appropriate ratio of the liquid sorbitol to the control feed was selected for the top-dressed control feed destined for the Trial B lactating sows to assure that each two pound allotment of the top-dressed control feed destined for the Trial B lactating sows included about fifty-two grams of sorbitol.
# During the feeding trial of this example, the top dressed control feed was applied three times daily to the balance of the control feed being provided individually at that feeding to the individual lactating sows of Trial A and Trial B. Approximately one-third of the top-dressed control feed was provided to the sows in the morning feeding, approximately one-third of the top dressed control feed was provided to the lactating sows in the noon feeding, and the remaining approximate one-third of the top-dressed control feed was provided to the sows in the afternoon feeding. The twenty-one sows of Trial A each received a total of about two pounds of the top-dressed control feed containing about 26 grams of sorbitol per day. […]
# [2] = Litter performance: total litter live weight and mean individual piglet weight; format: in vivo, swine
# Experimental: In each of the Examples provided below, each piglet was weighed two days after birth, fourteen days after birth, and again at weaning. All data that is provided in Tables 4-9 below for the lactating sows is based upon individual data for each lactating sow, then-present, as least square means of the particular data over all lactating sows present in the test at the time the particular data was recorded. All data that is provided in Tables 4-9 below for the piglets is based upon data for each litter of piglets, then-present, as least square means of the particular data over all piglets of the litter present in the test at the time the particular data was recorded. Data for parameters presented in Tables 4-9 was analyzed using the general linear model (GLM) statistical procedure of SAS™ statistical analysis software for a randomized complete block design that included both the particular Iced regimen and the week of the test period in the model statement. The SAS™ statistical analysis software is available from SAS Institute, Inc. of Cary, N.C. Additionally, all data was analyzed to determine the mean of the data for each variable under consideration during the collection period for the particular data.
# as §1, §2
# Additionally, the collective body weights of the piglets assigned to each lactating sow of the three different trials were measured and recorded on day two post-farrowing (about forty-eight hours after farrowing), on day fourteen post-farrowing (fourteen days after farrowing), and on the day the piglets were weaned. The mean body weight values for each individual piglet of the three different trials were derived for each piglet individually from the weight data recorded for each piglet litter by dividing the collective litter weight determined for a particular litter by the total number of piglets then-present in the litter to attain the mean individual piglet weights on day two post-farrowing (about forty-eight hours after farrowing), on day fourteen post-farrowing (fourteen days after farrowing), and on the day the piglets were weaned.
# In this example, the data from Example 1 was analyzed to remove data attributable to sows with a parity of only one. Parity refers to the number of litters a sow has previously given birth to during its life. Gilts or first-parity sows typically consume approximately fifteen to twenty percent less feed during lactation and also typically produce less milk than sows with parities greater than one. The litters of parity one sows also tend to have lower weaning weights and more health problems than the litters of sows with parities greater than one. The purpose of looking at the Example 1 data, as re-analyzed to remove the effect of parity one data, is to determine the influence of natural differences in feed intake and litter performance of parity one sows on the data presented in Example 1 above. Removing the data contributed by the […] parity one sows in Example 1, left the Control with fourteen sows of parity two or higher, left Trial A with sixteen sows of parity two or higher, and left Trial B with sixteen sows of parity two or higher. […]
# [3] = Trial A, 26 grams sorbitol per day, Parity ≥ 1, At Weaning
# [4] = Trial A, 26 grams sorbitol per day, Parity ≥ 1, Day 14
# [5] = Trial A, 26 grams sorbitol per day, Parity ≥ 1, day one post-farrowing to weaning
# [6] = Trial A, 26 grams sorbitol per day, Parity ≥ 1, day one to day fourteen post-farrowing
# [7] = Trial A, 26 grams sorbitol per day, Parity ≥2, At Weaning
# [8] = Trial A, 26 grams sorbitol per day, Parity ≥2, Day 2
# [9] = Trial A, 26 grams sorbitol per day, Parity ≥2, Day 14
# [10] = Trial A, 26 grams sorbitol per day, Parity ≥ 2, day one post-farrowing to weaning
# [11] = Trial A, 26 grams sorbitol per day, Parity ≥ 2, day one to day fourteen post-farrowing
# [12] = Trial B, 52 grams sorbitol per day, Parity ≥ 1, At Weaning
# [13] = Trial B, 52 grams sorbitol per day, Parity ≥ 1, Day 14
# [14] = Trial B, 52 grams sorbitol per day, Parity ≥ 1, day fourteen post-farrowing to weaning
# [15] = Trial B, 52 grams sorbitol per day, Parity ≥ 1, day one post-farrowing to weaning
# [16] = Trial B, 52 grams sorbitol per day, Parity ≥ 1, day one to day fourteen post-farrowing
# [17] = Trial B, 52 grams sorbitol per day, Parity ≥2, At Weaning
# [18] = Trial B, 52 grams sorbitol per day, Parity ≥2, Day 2
# [19] = Trial B, 52 grams sorbitol per day, Parity ≥2, Day 14
# [20] = Trial B, 52 grams sorbitol per day, Parity ≥ 2, day one post-farrowing to weaning
# [21] = Trial B, 52 grams sorbitol per day, Parity ≥ 2, day one to day fourteen post-farrowing
# [22] = Trial A, 26 grams sorbitol per day, Parity ≥ 1, Day 2
# [23] = Trial B, 52 grams sorbitol per day, Parity ≥ 1, Day 2
structure (smiles),measurement,setting,value
OC[C@@H](O)[C@@H](O)[C@H](O)[C@@H](O)CO [sorbitol],Number of Nursing Piglets,"[1]; Trial A, 26 grams sorbitol per day to sows, Parity ≥ 1, Day 2",10.57
same,Number of Nursing Piglets,[1]; [3],9.95
same,Percentage Piglet Mortality,"[1]; Trial A, 26 grams sorbitol per day, Parity ≥ 1, Day 1 to Day 14",3.99% and 3.99^c percent
same,Percentage Piglet Mortality,"[1]; Trial A, 26 grams sorbitol per day, Parity ≥ 1, Day 1 to Weaning",5.69% and 5.69^c percent
same,Number of Nursing Piglets,[1]; [4],10.14
same,Percentage Piglet Mortality,"[1]; Trial A, 26 grams sorbitol per day, Parity ≥ 1, Day 14 to weaning",1.74^d percent
same,piglet mortality drop versus Control,[1]; [5],47.07%
same,piglet mortality percentage drop versus Control,[1]; [5],5.06 percentage points
same,piglet mortality drop versus Control,[1]; [6],54.97%
same,piglet mortality percentage drop versus Control,[1]; [6],4.87 percentage points
same,Number of Nursing Piglets,[1]; [7],10.01
same,Percentage Piglet Mortality,"[1]; Trial A, 26 grams sorbitol per day, Parity ≥2, Day 1 to Day 14",3.52% and 3.52^c percent
same,Percentage Piglet Mortality,"[1]; Trial A, 26 grams sorbitol per day, Parity ≥2, Day 1 to Weaning",4.69% and 4.69^c percent
same,Number of Nursing Piglets,[1]; [8],10.51
same,Number of Nursing Piglets,[1]; [9],10.14
same,Percentage Piglet Mortality,"[1]; Trial A, 26 grams sorbitol per day, Parity ≥2, Day 14 to weaning",1.23%
same,piglet mortality drop versus Control,[1]; [10],63.27%
same,piglet mortality percentage drop versus Control,[1]; [10],8.08 percentage points
same,piglet mortality drop versus Control,[1]; [11],67.20%
same,piglet mortality percentage drop versus Control,[1]; [11],7.21 percentage points
same,Number of Nursing Piglets,"[1]; Trial B, 52 grams sorbitol per day to sows, Parity ≥ 1, Day 2",10.50
same,Number of Nursing Piglets,[1]; [12],10.03
same,Percentage Piglet Mortality,"[1]; Trial B, 52 grams sorbitol per day, Parity ≥ 1, Day 1 to Day 14",4.61% and 4.61^e percent
same,Percentage Piglet Mortality,"[1]; Trial B, 52 grams sorbitol per day, Parity ≥ 1, Day 1 to Weaning",4.60% and 4.60^c percent
same,Number of Nursing Piglets,[1]; [13],10.0
same,Percentage Piglet Mortality,"[1]; Trial B, 52 grams sorbitol per day, Parity ≥ 1, Day 14 to weaning",0.00% and 0.00^e percent
same,piglet mortality drop versus Control,[1]; [14],100%
same,piglet mortality percentage drop versus Control,[1]; [14],2.09 percentage points
same,piglet mortality drop versus Control,[1]; [15],57.21%
same,piglet mortality percentage drop versus Control,[1]; [15],6.15 percentage points
same,piglet mortality drop versus Control,[1]; [16],47.97%
same,piglet mortality percentage drop versus Control,[1]; [16],4.25 percentage points
same,Number of Nursing Piglets,[1]; [17],10.02
same,Percentage Piglet Mortality,"[1]; Trial B, 52 grams sorbitol per day, Parity ≥2, Day 1 to Day 14",5.68% and 5.68^c percent
same,Percentage Piglet Mortality,"[1]; Trial B, 52 grams sorbitol per day, Parity ≥2, Day 1 to Weaning",5.71% and 5.71^c percent
same,Number of Nursing Piglets,[1]; [18],10.62
same,Number of Nursing Piglets,[1]; [19],10.02
same,Percentage Piglet Mortality,"[1]; Trial B, 52 grams sorbitol per day, Parity ≥2, Day 14 to weaning",0.00%
same,piglet mortality drop versus Control,[1]; [20],55.29%
same,piglet mortality percentage drop versus Control,[1]; [20],7.06 percentage points
same,piglet mortality drop versus Control,[1]; [21],47.06%
same,piglet mortality percentage drop versus Control,[1]; [21],5.05 percentage points
same,Mean Weight of Individual Piglets,[2]; [3],14.80 pounds
same,Total Live Weight of Litter,[2]; [3],147.53^de pounds
same,Mean Weight of Individual Piglets,[2]; [22],4.11 pounds
same,Total Live Weight of Litter,[2]; [22],43.29 pounds
same,Mean Weight of Individual Piglets,[2]; [4],10.59 pounds
same,Total Live Weight of Litter,[2]; [4],107.85 pounds
same,Mean Weight of Individual Piglets,[2]; [7],15.02 pounds
same,Total Live Weight of Litter,[2]; [7],150.42^bc pounds
same,Mean Weight of Individual Piglets,[2]; [8],4.14 pounds
same,Total Live Weight of Litter,[2]; [8],43.37 pounds
same,Mean Weight of Individual Piglets,[2]; [9],10.82 pounds
same,Total Live Weight of Litter,[2]; [9],109.76 pounds
same,Mean Weight of Individual Piglets,[2]; [12],15.55 pounds
same,Total Live Weight of Litter,[2]; [12],154.81 pounds and 154.81^e pounds
same,Mean Weight of Individual Piglets,[2]; [23],3.90 pounds
same,Total Live Weight of Litter,[2]; [23],41.17 pounds
same,Mean Weight of Individual Piglets,[2]; [13],10.39 pounds
same,Total Live Weight of Litter,[2]; [13],104.39 pounds
same,Mean Weight of Individual Piglets,[2]; [17],16.03 pounds
same,Total Live Weight of Litter,[2]; [17],159.86 pounds and 159.86^c pounds
same,Mean Weight of Individual Piglets,[2]; [18],4.18 pounds
same,Total Live Weight of Litter,[2]; [18],44.48 pounds
same,Mean Weight of Individual Piglets,[2]; [19],10.87 pounds
same,Total Live Weight of Litter,[2]; [19],109.25 pounds
